Columns and labels:
Assay in all cases: Eurofins kinase profiling
Type in all cases: biochemical
[1] = target: T1, EphB4(h) (Homo sapiens, UniProt P54760); settings: read-out: residual kinase activity EphB4(h)
T1 construct: purchased Eurofins KinaseProfiler
T1 sequence (P54760 16-987): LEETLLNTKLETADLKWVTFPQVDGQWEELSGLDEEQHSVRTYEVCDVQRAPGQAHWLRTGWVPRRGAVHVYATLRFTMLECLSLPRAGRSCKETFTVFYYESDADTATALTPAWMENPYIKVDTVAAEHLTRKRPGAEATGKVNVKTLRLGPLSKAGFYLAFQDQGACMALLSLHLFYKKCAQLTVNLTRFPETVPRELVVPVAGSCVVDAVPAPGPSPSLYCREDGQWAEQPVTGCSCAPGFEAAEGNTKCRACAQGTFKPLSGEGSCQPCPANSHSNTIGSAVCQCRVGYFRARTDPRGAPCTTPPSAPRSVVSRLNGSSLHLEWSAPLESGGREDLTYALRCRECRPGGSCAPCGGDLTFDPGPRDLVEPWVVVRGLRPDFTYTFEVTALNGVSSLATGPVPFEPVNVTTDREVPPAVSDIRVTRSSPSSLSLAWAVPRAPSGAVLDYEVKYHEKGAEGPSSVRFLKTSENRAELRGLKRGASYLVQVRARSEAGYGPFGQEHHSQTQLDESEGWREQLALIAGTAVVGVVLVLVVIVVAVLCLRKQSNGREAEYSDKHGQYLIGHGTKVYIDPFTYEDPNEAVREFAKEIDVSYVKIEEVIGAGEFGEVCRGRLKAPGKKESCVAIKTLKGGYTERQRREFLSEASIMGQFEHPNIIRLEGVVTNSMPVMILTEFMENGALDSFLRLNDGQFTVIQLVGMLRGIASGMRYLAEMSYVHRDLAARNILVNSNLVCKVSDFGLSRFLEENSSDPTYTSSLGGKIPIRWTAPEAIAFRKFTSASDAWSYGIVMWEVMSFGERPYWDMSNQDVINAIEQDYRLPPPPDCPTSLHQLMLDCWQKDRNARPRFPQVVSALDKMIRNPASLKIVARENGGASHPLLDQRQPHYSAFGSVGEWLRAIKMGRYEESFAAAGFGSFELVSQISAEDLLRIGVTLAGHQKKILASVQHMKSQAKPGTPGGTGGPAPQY
Outline: (§1)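 Single-point screen at 1 µM compound; radiometric read-out of kinase activity using radiolabeled phosphate, per standard KinaseProfiler protocol.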

[2] = target: T2, PKD2(h) (Homo sapiens, UniProt Q9BZL6); settings: read-out: residual kinase activity PKD2(h)
T2 construct: purchased Eurofins KinaseProfiler
T2 sequence (Q9BZL6 1-878): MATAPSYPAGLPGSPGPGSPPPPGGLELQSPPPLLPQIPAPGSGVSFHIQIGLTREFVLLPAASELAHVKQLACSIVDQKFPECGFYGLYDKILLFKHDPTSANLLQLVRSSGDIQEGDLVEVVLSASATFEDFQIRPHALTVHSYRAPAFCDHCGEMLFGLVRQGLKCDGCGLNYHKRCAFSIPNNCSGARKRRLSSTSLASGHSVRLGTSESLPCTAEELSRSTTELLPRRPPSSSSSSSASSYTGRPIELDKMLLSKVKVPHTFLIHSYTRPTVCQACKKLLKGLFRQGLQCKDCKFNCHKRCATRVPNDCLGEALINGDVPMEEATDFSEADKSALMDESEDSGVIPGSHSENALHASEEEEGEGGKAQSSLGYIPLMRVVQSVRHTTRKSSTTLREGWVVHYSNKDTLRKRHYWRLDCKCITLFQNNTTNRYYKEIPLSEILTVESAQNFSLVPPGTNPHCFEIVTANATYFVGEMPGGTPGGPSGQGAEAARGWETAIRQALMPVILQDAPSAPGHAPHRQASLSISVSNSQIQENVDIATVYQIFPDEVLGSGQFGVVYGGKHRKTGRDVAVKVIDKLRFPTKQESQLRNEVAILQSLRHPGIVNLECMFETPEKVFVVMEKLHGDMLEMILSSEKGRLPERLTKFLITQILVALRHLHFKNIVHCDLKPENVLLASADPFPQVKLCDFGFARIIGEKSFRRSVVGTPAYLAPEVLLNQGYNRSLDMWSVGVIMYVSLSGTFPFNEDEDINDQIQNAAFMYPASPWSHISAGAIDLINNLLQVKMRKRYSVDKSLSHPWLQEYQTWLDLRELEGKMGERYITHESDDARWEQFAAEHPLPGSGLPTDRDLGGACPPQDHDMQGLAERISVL
Outline: as §1

[3] = target: T3, Fer(h) (Homo sapiens, UniProt P16591); settings: read-out: residual kinase activity Fer(h)
T3 construct: purchased Eurofins KinaseProfiler
T3 sequence (P16591 whole entry): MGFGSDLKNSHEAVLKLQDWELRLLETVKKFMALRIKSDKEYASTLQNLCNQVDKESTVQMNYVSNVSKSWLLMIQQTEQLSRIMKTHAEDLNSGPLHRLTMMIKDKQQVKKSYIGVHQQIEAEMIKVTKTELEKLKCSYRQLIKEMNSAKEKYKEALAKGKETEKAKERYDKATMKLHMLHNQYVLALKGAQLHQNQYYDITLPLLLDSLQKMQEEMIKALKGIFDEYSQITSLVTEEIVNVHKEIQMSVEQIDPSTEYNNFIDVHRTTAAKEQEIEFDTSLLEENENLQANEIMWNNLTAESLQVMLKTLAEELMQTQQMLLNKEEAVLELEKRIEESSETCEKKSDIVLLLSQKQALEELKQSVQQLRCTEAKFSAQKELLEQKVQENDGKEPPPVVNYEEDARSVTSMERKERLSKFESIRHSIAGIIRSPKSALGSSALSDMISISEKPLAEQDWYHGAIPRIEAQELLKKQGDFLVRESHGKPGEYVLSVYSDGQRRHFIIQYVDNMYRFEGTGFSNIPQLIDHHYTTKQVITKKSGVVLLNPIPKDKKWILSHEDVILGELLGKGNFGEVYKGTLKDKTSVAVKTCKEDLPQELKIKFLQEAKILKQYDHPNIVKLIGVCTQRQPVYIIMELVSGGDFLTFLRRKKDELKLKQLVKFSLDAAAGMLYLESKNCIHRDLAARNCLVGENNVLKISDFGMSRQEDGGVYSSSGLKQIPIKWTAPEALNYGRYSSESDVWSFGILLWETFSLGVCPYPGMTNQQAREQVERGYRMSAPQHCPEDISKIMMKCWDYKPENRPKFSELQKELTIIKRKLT
Outline: as §1

[4] = target: T4, Pim-1(h) (Homo sapiens, UniProt P11309); settings: read-out: residual kinase activity Pim-1(h)
T4 construct: purchased Eurofins KinaseProfiler
T4 sequence (P11309 whole entry): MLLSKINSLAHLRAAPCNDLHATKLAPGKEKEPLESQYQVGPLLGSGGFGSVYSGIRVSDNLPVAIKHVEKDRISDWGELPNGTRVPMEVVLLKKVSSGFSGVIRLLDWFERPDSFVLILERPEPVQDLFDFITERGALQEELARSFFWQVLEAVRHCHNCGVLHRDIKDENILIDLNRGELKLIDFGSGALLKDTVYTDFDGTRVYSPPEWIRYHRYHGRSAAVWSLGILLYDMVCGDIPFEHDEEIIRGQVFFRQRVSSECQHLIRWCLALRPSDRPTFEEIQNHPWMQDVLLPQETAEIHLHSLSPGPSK
Outline: as §1

[5] = target: T5, ARK5(h) (Homo sapiens, UniProt O60285); settings: read-out: residual kinase activity ARK5(h)
T5 construct: purchased Eurofins KinaseProfiler
T5 sequence (O60285 1-661): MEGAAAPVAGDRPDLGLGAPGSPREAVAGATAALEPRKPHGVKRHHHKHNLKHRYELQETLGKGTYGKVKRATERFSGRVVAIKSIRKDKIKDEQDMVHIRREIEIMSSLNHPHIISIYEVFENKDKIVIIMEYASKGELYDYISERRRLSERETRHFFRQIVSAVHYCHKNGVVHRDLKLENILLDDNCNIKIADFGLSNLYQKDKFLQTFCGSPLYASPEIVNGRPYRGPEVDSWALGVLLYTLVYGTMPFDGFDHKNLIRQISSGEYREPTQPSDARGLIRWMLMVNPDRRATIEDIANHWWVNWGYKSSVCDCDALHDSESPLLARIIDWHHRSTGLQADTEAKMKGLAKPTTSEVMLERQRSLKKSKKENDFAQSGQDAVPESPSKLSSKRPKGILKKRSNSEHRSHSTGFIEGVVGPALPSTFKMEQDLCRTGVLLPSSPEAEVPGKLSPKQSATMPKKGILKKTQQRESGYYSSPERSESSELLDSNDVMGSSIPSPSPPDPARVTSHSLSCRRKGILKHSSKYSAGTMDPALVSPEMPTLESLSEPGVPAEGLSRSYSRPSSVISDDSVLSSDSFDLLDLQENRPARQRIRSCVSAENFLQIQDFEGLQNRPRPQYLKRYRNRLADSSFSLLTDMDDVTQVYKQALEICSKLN
Outline: as §1

[6] = target: T6, EGFR(L861Q)(h) (Homo sapiens, UniProt P00533, L861Q); settings: read-out: residual kinase activity EGFR(L861Q)(h)
T6 construct: purchased Eurofins KinaseProfiler
T6 sequence (P00533 25-1210 L861Q): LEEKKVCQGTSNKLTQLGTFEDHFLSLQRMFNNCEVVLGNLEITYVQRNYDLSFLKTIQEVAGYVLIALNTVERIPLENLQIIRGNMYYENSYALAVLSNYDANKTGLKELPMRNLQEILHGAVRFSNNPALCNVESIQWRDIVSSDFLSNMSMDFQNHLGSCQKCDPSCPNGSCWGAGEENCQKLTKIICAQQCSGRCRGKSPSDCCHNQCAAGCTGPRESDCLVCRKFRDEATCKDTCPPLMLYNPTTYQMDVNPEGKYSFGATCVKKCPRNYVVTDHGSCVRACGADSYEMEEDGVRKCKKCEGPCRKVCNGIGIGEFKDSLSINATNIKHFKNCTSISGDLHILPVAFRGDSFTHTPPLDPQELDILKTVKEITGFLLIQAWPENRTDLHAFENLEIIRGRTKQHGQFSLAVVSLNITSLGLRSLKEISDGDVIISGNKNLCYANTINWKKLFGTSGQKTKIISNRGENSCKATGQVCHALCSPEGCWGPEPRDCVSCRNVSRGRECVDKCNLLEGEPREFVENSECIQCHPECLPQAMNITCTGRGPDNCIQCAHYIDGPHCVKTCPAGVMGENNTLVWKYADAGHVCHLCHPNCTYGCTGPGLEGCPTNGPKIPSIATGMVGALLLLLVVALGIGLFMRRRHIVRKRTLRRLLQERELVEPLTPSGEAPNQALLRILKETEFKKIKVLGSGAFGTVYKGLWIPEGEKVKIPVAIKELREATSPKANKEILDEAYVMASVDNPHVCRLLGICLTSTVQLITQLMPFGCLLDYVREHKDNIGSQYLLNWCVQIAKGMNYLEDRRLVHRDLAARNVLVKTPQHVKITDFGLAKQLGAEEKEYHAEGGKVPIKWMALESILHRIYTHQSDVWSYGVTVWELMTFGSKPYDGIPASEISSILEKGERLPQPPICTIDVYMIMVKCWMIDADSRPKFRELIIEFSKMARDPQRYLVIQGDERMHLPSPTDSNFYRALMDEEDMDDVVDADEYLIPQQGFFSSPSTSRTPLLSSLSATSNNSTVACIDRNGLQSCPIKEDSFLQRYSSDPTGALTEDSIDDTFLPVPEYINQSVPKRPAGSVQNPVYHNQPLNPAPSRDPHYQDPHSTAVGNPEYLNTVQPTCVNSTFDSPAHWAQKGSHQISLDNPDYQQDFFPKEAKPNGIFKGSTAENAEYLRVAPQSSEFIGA
Outline: as §1

## CONC(=O)c1ccccc1Nc1cc(Nc2cc(C)nn2C(C)C)ncc1Cl [GSK2256098]
[1]
  remaining activity at 1 µM: 94%
[2]
  remaining activity at 1 µM: 90%
[3]
  remaining activity at 1 µM: 105%
[4]
  remaining activity at 1 µM: 87%
[5]
  remaining activity at 1 µM: 92%
[6]
  remaining activity at 1 µM: 69%

## CNC(=O)c1cccc(C)c1Nc1nc(Nc2ccc(N3CCN(C4C5CC6CC4CC(O)(C6)C5)CC3)cc2OC)ncc1C(F)(F)F (stereo not drawn) [SJP1602, 2-((2-((4-(4-((2s,5r)-5-hydroxyadamantan-2-yl)piperazin-1-yl)-2-methoxyphenyl)amino)-5-(trifluoromethyl)pyrimidin-4-yl)amino)-N,3-dimethylbenzamide]
[1]
  remaining activity at 1 µM: 93%
[2]
  remaining activity at 1 µM: 116%
[3]
  remaining activity at 1 µM: 68%
[4]
  remaining activity at 1 µM: 87%
[5]
  remaining activity at 1 µM: 90%
[6]
  remaining activity at 1 µM: 120%

## CNC(=O)c1ccc(Nc2ncc(C(F)(F)F)c(NCc3nccnc3N(C)S(C)(=O)=O)n2)cc1 [VS-6063, Defactinib]
[1]
  remaining activity at 1 µM: 67%
[2]
  remaining activity at 1 µM: 116%
[3]
  remaining activity at 1 µM: 31%
[4]
  remaining activity at 1 µM: 86%
[5]
  remaining activity at 1 µM: 21%
[6]
  remaining activity at 1 µM: 128%

— article PMC10528299, “Targeting FAK/PYK2 with SJP1602 for Anti-Tumor Activity in Triple-Negative Breast Cancer” (Current Issues in Molecular Biology, 2023)
